{
  "source": "patent US10829484B2",
  "about": "“Compounds and methods for kinase modulation, and indications therefor” (Plexxikon Inc., priority 2015, dated 2020)",
  "molecular_target": "T1, BaF3-FLT3-ITD-D835V (Homo sapiens, UniProt P36888, INS600HVDFREYEYD/D835V, cells depend on it)",
  "T1 sequence (P36888 with tags, fused parts or gaps INS600HVDFREYEYD/D835V)": "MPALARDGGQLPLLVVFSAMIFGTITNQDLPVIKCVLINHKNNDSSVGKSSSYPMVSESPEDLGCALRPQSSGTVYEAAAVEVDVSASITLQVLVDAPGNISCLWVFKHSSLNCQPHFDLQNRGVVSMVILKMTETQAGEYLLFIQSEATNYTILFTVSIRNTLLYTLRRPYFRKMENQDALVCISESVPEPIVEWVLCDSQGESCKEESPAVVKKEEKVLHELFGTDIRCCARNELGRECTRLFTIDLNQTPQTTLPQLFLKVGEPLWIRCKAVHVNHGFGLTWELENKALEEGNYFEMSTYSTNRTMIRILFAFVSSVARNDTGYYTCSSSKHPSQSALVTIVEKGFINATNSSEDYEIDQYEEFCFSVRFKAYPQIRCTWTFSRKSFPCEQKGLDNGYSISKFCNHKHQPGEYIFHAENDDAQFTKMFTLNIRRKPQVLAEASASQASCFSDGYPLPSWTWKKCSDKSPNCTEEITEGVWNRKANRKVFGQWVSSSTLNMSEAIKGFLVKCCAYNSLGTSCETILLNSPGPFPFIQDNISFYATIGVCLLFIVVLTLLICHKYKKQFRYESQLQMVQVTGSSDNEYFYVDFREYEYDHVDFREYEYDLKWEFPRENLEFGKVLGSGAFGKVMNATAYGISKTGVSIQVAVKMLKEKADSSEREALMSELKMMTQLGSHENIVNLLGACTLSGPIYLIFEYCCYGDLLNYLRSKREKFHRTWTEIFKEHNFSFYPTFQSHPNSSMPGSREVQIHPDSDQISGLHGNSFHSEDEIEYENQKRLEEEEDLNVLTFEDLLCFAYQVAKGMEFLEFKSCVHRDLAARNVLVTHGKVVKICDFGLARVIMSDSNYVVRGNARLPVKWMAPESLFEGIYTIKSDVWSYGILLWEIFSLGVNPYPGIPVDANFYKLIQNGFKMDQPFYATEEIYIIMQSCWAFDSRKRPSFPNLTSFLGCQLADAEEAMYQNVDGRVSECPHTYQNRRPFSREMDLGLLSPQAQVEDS",
  "assay": "CTB viability assay CS0048, BaF3-FLT3-ITD-D835V",
  "assay_type": "cell-based, murine",
  "conditions": "CellTiter Blue viability, 72 hours",
  "summary_of_the_method": "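Murine Ba/F3 cells made IL-3-independent by retroviral human FLT3-ITD (MV4-11 ITD), ±F691L or D835V, serum-starved overnight in 0.5% FBS. 3-fold compound dilutions applied 72 h at 37° C; viability by CellTiter Blue fluorescence (ex 560/em 590 nm), normalized to DMSO, IC50 from duplicate plates.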",
  "key": {"[1]": {"conditions": "BaF3-FLT3-ITD-D835V cells, read-out: Cell Assay: CS0048: BaF3-FLT3-ITD-D835V CTB:IC50"}, "[2]": {"conditions": "Table 4, compounds from WO 2011/022473, read-out: Cell Assay: CS0048: BaF3-FLT3-ITD-D835V CTB: IC50"}, "[3]": {"conditions": "Table 3, read-out: Cell Assay: CS0048: BaF3-FLT3-ITD-D835V CTB: IC50"}},
  "note": "Read-outs that look alike come from different tables or passages of the source.",
  "data": [
    {"smiles": "Cc1nn(C)c(C)c1Nc1ncc(-c2ccc(CC(=O)Nc3cc(C4(C(F)(F)F)CC4)on3)c(F)c2)cn1", "note": "[P-029, 2-[2-fluoro-4-[2-[(l,3,5-trimethylpyrazol-4-yl)amino]pyrimidin-5-yl]phenyl]-N-[5-[1-(trifluoromethyl)cyclopropyl]isoxazol-3-yl]acetamide]", "values": [
      {"measurement": "GI50", "setting": "[1]", "result": "10 to 50", "unit": "nM"}
    ]},
    {"smiles": "CC(C)(C)c1cc(NC(=O)Nc2ccc(-c3cnc(NC4CCOCC4)nc3)cn2)no1", "note": "[reference compound]", "values": [
      {"measurement": "GI50", "setting": "[2]", "result": 673, "unit": "nM"}
    ]},
    {"smiles": "CCNc1ccc(-c2ccc(CC(=O)Nc3cc(C(C)(C)C)on3)cc2)cn1", "note": "[reference compound]", "values": [
      {"measurement": "GI50", "setting": "[2]", "result": 94.2, "unit": "nM"}
    ]},
    {"smiles": "O=C(Cc1ccc(-c2cnc(Nc3ccccc3)nc2)cc1F)Nc1cc(C2(C(F)(F)F)CC2)on1", "values": [
      {"measurement": "GI50", "setting": "[3]", "result": 0.772, "unit": "nM"}
    ]},
    {"smiles": "CC(C)(c1cc(NC(=O)Cc2ccc(-c3ccc(NCCN4CCOCC4)nc3)cc2)no1)C(F)(F)F", "note": "[reference compound]", "values": [
      {"measurement": "GI50", "setting": "[2]", "result": 145, "unit": "nM"}
    ]},
    {"smiles": "CC(C)(C)c1cc(NC(=O)Nc2ccc(-c3cnc(NC4CC4)nc3)cn2)no1", "note": "[reference compound]", "values": [
      {"measurement": "GI50", "setting": "[2]", "result": 585, "unit": "nM"}
    ]},
    {"smiles": "O=C(O)Cn1cc(Nc2ncc(-c3ccc(CC(=O)Nc4cc(C5(C(F)(F)F)CC5)on4)c(F)c3)cn2)cn1", "note": "[P-078, 2-[4-[[5-[3-fluoro-4-[2-oxo-2-[[5-[1-(trifluoromethyl)cyclopropyl]isoxazol-3-yl]amino]ethyl]phenyl]pyrimidin-2-yl]amino]pyrazol-1-yl]acetic acid]", "values": [
      {"measurement": "GI50", "setting": "[1]", "result": "50 to 100", "unit": "nM"}
    ]},
    {"smiles": "CNc1ccc(-c2ccc(CC(=O)Nc3cc(C(C)(C)C)on3)cc2)cn1", "note": "[reference compound]", "values": [
      {"measurement": "GI50", "setting": "[2]", "result": 92, "unit": "nM"}
    ]},
    {"smiles": "Cn1cc(Nc2ncc(-c3ccc(CC(=O)Nc4cc(C5(C(F)(F)F)CC5)on4)c(F)c3)cn2)cn1", "values": [
      {"measurement": "GI50", "setting": "[3]", "result": 0.259, "unit": "nM"}
    ]}
  ]
}
